In PubChem BioAssay AID1259408 (Genetic Toxicology Data Bank (GENE-TOX), 2018):
The source made the active and inactive calls. The rule behind the calls is not given here.

Tested on: GENE-TOX genotoxicity assays, various organisms and cells
Assay: GENE-TOX mutagenicity studies
Settings: for call: Assay Type: In vivo carcinogenicity studies
[1] = Species/Cell Type: Drosophila melanogaster, Assay Type: Sex-linked recessive lethal gene mutation, Assay Code: SRL+, Evaluation Type: Evaluation A (Pre-1980)
[2] = Species/Cell Type: Salmonella typhimurium (one or more of the five standard strains: TA98, TA100, TA1535, TA1537, and TA1538), Assay Type: Histidine reverse gene mutation, Ames assay, Assay Code: SALT, Evaluation Type: Evaluation A (Pre-1980)
[3] = Species/Cell Type: Escherichia coli WP2 UVRA, Assay Type: Tryptophan reverse gene mutation, Assay Code: WPU-*, Activation: With metabolic activation, Evaluation Type: Evaluation A (Pre-1980)
[4] = Species/Cell Type: Saccharomyces cerevisiae, Assay Type: Reverse gene mutation, Assay Code: YERT, Evaluation Type: Evaluation A (Pre-1980)
[5] = Species/Cell Type: Mammalian polychromatic erythrocytes, Assay Type: Micronucleus test, chromosome aberrations, Assay Code: MNTT, Evaluation Type: Evaluation B (Post-1980)
[6] = Species/Cell Type: Nonhuman, Assay Type: Sister-chromatid exchange (SCE) in vitro, Assay Code: SC2+D, Dose Response: With dose response, Evaluation Type: Evaluation B (Post-1980)
[7] = Species/Cell Type: Bacillus subtilis (H17 vs M45), Assay Type: Rec-assay, spot test, DNA effects (bacterial DNA repair), Assay Code: REW+, Evaluation Type: Evaluation A (Pre-1980)
[8] = Species/Cell Type: Nonhuman, Assay Type: Sister-chromatid exchange (SCE) in vivo, Assay Code: SC3T, Evaluation Type: Evaluation B (Post-1980)
[9] = Species/Cell Type: Rodents, Sex: Male, Assay Type: Dominant lethal test, Assay Code: DLT-, Evaluation Type: Evaluation A (Pre-1980)
[10] = Species/Cell Type: Human lymphocytes, Assay Type: Sister-chromatid exchange (SCE) in vitro, Assay Code: SCLT, Evaluation Type: Evaluation B (Post-1980)
[11] = Species/Cell Type: Human, Assay Type: Sister-chromatid exchange (SCE) in vitro, Assay Code: SC1T, Evaluation Type: Evaluation B (Post-1980)
[12] = Species/Cell Type: Drosophila melanogaster, Assay Type: Sex-linked recessive lethal gene mutation, Assay Code: SRLT, Evaluation Type: Evaluation A (Pre-1980)
[13] = Species/Cell Type: Nonhuman, Assay Code: CCG+, Evaluation Type: Evaluation A (Pre-1980)
[14] = Species/Cell Type: Chinese hamster ovary (CHO) cells, Assay Type: Forward gene mutation at the HPRT locus, Assay Code: CHO+, Evaluation Type: Evaluation B (Post-1980)
[15] = Species/Cell Type: Salmonella typhimurium (one or more of the five standard strains: TA98, TA100, TA1535, TA1537, and TA1538), Assay Type: Histidine reverse gene mutation, Ames assay, Assay Code: SAL+*, Activation: With metabolic activation, Evaluation Type: Evaluation A (Pre-1980)

CC(C)[C@@](O)(C(=O)OCC1=CCN2CCC[C@@H]12)[C@@H](C)O
mutagenic call (Species/Cell Type: Allium cepa, Assay Type: Chromosome aberrations, Assay Code: ALC+, Evaluation Type: Evaluation A (Pre-1980)): active; positive | mutagenic call [1]: active; positive

O=NN1CCC(Br)C(Br)C1 (stereo not drawn)
mutagenic call [1]: active; positive | mutagenic call (Species/Cell Type: Salmonella typhimurium (one or more of the five standard strains: TA98, TA100, TA1535, TA1537, and TA1538), Assay Type: Histidine reverse gene mutation, Ames assay, Assay Code: SAL+, Evaluation Type: Evaluation A (Pre-1980)): active; positive

COc1ccc2nc3cc(Cl)ccc3c(NCCCNCCO)c2c1
mutagenic call (Species/Cell Type: Chinese hamster ovary (CHO) cells, Assay Type: Forward gene mutation at the HPRT locus, Assay Code: CHO-, Evaluation Type: Evaluation A (Pre-1980)): inactive; negative | mutagenic call (Species/Cell Type: Chinese hamster ovary (CHO) cells, Assay Type: Forward gene mutation at the HPRT locus, Assay Code: CHOT, Evaluation Type: Evaluation B (Post-1980)): no conclusion | mutagenic call [2]: no conclusion

Oc1cc(O)c2ccccc2c1
mutagenic call (Species/Cell Type: Allium cepa, Assay Type: Chromosome aberrations, Assay Code: ALCT, Evaluation Type: Evaluation A (Pre-1980)): no conclusion

C[CH2][Pb]([Cl])([CH2]C)[CH2]C
mutagenic call (Species/Cell Type: Drosophila melanogaster, Assay Type: Aneuploidy, sex chromosome gain, chromosome aberrations, Assay Code: DAG-M, Evaluation Type: Evaluation A (Pre-1980)): inactive; negative | mutagenic call (Species/Cell Type: Drosophila melanogaster, Assay Type: Aneuploidy, whole sex chromosome loss, chromosome aberrations, Assay Code: DAC+M, Evaluation Type: Evaluation A (Pre-1980)): active; positive

COc1cc(C(=O)CCN2CCCC2)ccc1O
mutagenic call (Species/Cell Type: Salmonella typhimurium, Assay Type: Forward and reverse gene mutation, host-mediated assay, Assay Code: HMAT, Evaluation Type: Evaluation A (Pre-1980)): no conclusion

CCCCSC(=Nc1cccnc1)SCc1ccc(C(C)(C)C)cc1
mutagenic call (Species/Cell Type: Salmonella typhimurium, Assay Type: Forward and reverse gene mutation, host-mediated assay, Assay Code: HMA-, Evaluation Type: Evaluation A (Pre-1980)): inactive; negative

OC[C@@H](O)[C@@H](O)[C@H](O)[C@H](O)CO
mutagenic call [3]: inactive; negative | call (Species/Cell Type: Nonhuman, Assay Code: CCG-, Evaluation Type: Evaluation A (Pre-1980)): inactive; negative

O=C(COc1ccc(Br)cc1CN1CCOCC1)N/N=C/c1ccccc1
mutagenic call [4]: no conclusion

CCOC(=O)N(OC(C)=O)C(C)=O
mutagenic call [1]: active; positive | mutagenic call (Species/Cell Type: Drosophila melanogaster, Sex: Male, Assay Type: Heritable translocation test, chromosome aberrations, Assay Code: DHTT, Evaluation Type: Evaluation A (Pre-1980)): no conclusion

CN=C(N)NC(=O)Nc1c(C)cccc1C
mutagenic call [5]: no conclusion

CC(N)=S=O
mutagenic call (Species/Cell Type: Mammalian polychromatic erythrocytes, Assay Type: Micronucleus test, chromosome aberrations, Assay Code: MNT+U, Dose Response: Unconfirmed positive response, Evaluation Type: Evaluation B (Post-1980)): active; positive

Cc1cc2ccccc2c2cc(F)c3ccccc3c12
mutagenic call [2]: no conclusion

Nc1cccc2c1C(=O)c1c(NCCNCCO)ccc(NCCNCCO)c1C2=O
mutagenic call [6]: active; positive

[CH3][Hg][Cl]
mutagenic call [7]: active; positive | mutagenic call (Species/Cell Type: Human lymphocytes, Assay Type: Sister-chromatid exchange (SCE) in vitro, Assay Code: SCL+, Evaluation Type: Evaluation B (Post-1980)): active; positive | mutagenic call (Species/Cell Type: Human, Assay Type: Sister-chromatid exchange (SCE) in vitro, Assay Code: SC1+, Evaluation Type: Evaluation B (Post-1980)): active; positive | mutagenic call [8]: no conclusion | mutagenic call [9]: inactive; negative

CCC(C)=O
mutagenic call (Species/Cell Type: Bacillus subtilis (H17 vs M45), Assay Type: Rec-assay, spot test, DNA effects (bacterial DNA repair), Assay Code: REWT, Evaluation Type: Evaluation A (Pre-1980)): no conclusion | mutagenic call (Species/Cell Type: Mammalian polychromatic erythrocytes, Assay Type: Micronucleus test, chromosome aberrations, Assay Code: MNT-, Evaluation Type: Evaluation B (Post-1980)): inactive; negative

CCC1=C(O)C(=O)CC1
mutagenic call [10]: no conclusion | mutagenic call [11]: no conclusion

CN(N=O)C(C)(C)C
mutagenic call (Species/Cell Type: Chinese hamster lung (V79) cells, Assay Type: Forward gene mutation at the HPRT or ouabain locus, Assay Code: V79-, Evaluation Type: Evaluation A (Pre-1980)): inactive; negative

O=C(NO)NO
mutagenic call (Species/Cell Type: Drosophila melanogaster, Assay Type: Aneuploidy, sex chromosome gain, chromosome aberrations, Assay Code: DAGT, Evaluation Type: Evaluation A (Pre-1980)): no conclusion | mutagenic call (Species/Cell Type: Drosophila melanogaster, Assay Type: Aneuploidy, whole sex chromosome loss, chromosome aberrations, Assay Code: DAC-M, Evaluation Type: Evaluation A (Pre-1980)): inactive; negative | mutagenic call [12]: no conclusion

CC(=O)Nc1ccc(N=Nc2cc(C)ccc2O)cc1
call [13]: active; positive

C/C(=C/c1ccc(SC#N)cc1)[N+](=O)[O-]
mutagenic call [7]: active; positive

CN(C)Cc1cc(Br)ccc1OCC(=O)NN
mutagenic call [4]: no conclusion

[O]=[W](=[O])([OH])[OH]
mutagenic call [10]: no conclusion | mutagenic call [11]: no conclusion

O=C1c2c(O)ccc(O)c2C(=O)c2c(NCCNCCO)ccc(NCCNCCO)c21
mutagenic call (Species/Cell Type: Nonhuman, Assay Type: Sister-chromatid exchange (SCE) in vitro, Assay Code: SC2+, Evaluation Type: Evaluation B (Post-1980)): active; positive

CCCCOc1ccc2nc3cc(Cl)ccc3c(NCCCNCCCl)c2n1
mutagenic call [14]: active; positive

[Cl][Sn][Cl]
mutagenic call (Species/Cell Type: Bacillus subtilis (H17 vs M45), Assay Type: Rec-assay, spot test, DNA effects (bacterial DNA repair), Assay Code: REW-, Evaluation Type: Evaluation A (Pre-1980)): inactive; negative | mutagenic call [3]: inactive; negative | call (Species/Cell Type: Nonhuman, Assay Code: CCG-L, Evaluation Type: Evaluation A (Pre-1980)): inactive; negative | mutagenic call (Species/Cell Type: Nonhuman, Assay Type: Sister-chromatid exchange (SCE) in vitro, Assay Code: SC2-, Evaluation Type: Evaluation B (Post-1980)): inactive; negative

ClC1=C(Cl)[C@]2(Cl)[C@H]3[C@H]([C@@H]4C=C[C@H]3C4)[C@@]1(Cl)C2(Cl)Cl
mutagenic call [12]: no conclusion | mutagenic call [5]: no conclusion | call (Species/Cell Type: Nonhuman, Assay Code: CCG+L, Evaluation Type: Evaluation A (Pre-1980)): active; positive | mutagenic call (Species/Cell Type: Saccharomyces cerevisiae, Assay Type: Mitotic recombination or gene conversion, Assay Code: YEH-, Evaluation Type: Evaluation A (Pre-1980)): inactive; negative | mutagenic call (Species/Cell Type: Salmonella typhimurium (one or more of the five standard strains: TA98, TA100, TA1535, TA1537, and TA1538), Assay Type: Histidine reverse gene mutation, Ames assay, Assay Code: SAL-, Evaluation Type: Evaluation A (Pre-1980)): inactive; negative

Cc1cccc2cccnc12
mutagenic call [15]: active; positive

CC1CO1 (stereo not drawn)
mutagenic call [14]: active; positive | mutagenic call [1]: active; positive | mutagenic call (Species/Cell Type: Neurospora crassa, Assay Type: Reverse gene mutation, Assay Code: NER+, Evaluation Type: Evaluation A (Pre-1980)): active; positive | call [13]: active; positive | mutagenic call [8]: no conclusion | mutagenic call [9]: inactive; negative | mutagenic call (Species/Cell Type: Schizosaccharomyces pombe, Assay Type: Reverse gene mutation, Assay Code: YEZ+, Evaluation Type: Evaluation A (Pre-1980)): active; positive | mutagenic call (Species/Cell Type: Syrian hamster embryo (SA7/SHE) cells, Assay Type: Cell transformation, viral enhanced, Assay Code: CT7+, Evaluation Type: Evaluation A (Pre-1980)): active; positive

Cc1cc(-c2ccc(N)c(C)c2)ccc1N
mutagenic call (Species/Cell Type: Fischer rat embryo (RLV/1706) cells, Assay Type: Cell transformation, viral enhanced, Assay Code: CTR+, Evaluation Type: Evaluation A (Pre-1980)): active; positive | mutagenic call (Species/Cell Type: Human diploid fibroblasts, Assay Type: Unscheduled DNA synthesis (UDS) in vitro, DNA effects, Assay Code: UDHT, Evaluation Type: Evaluation A (Pre-1980)): no conclusion | mutagenic call (Species/Cell Type: Mammalian polychromatic erythrocytes, Assay Type: Micronucleus test, chromosome aberrations, Assay Code: MNT+, Evaluation Type: Evaluation A (Pre-1980)): active; positive | call [13]: active; positive | mutagenic call [6]: active; positive | mutagenic call [15]: active; positive

C/C=C/c1ccc2c(c1)OCO2
call [13]: active; positive

Cc1c2ccccc2cc2c1ccc1cccc(C)c12
mutagenic call [12]: no conclusion

c1ccc2cc3c(cc2c1)-c1cccc2cccc-3c12
call [13]: active; positive
